# pIC50: −log10 of the molar value. “Also recorded” adds a separate entry of the source. Read-outs that look alike come from different tables or passages of the source.
# Key:
# GSK3 = conditions: cited from earlier work
# [1] = Phase 2 candidate, trial abandoned; literature (54); cited from earlier work
# [2] = Remote loading of GSK3 inhibitors into silicasomes: encapsulation efficiency and loading capacity; type: physicochemical; conditions: for encapsulation efficiency in silicasomes (in words): remote loading at 5, 10 or 20 feed weight %
# Protocol: The overall scheme for the synthesis of silicasome carriers to deliver GSK3 inhibitors is outlined in FIG. 3. Briefly, a large batch (i.e. 120 g) synthesis of bare particles was carried out as previously, yielding ˜70 nm MSNPs (FIG. 3, panel A) (22). […] 20 mg soaked-in MSNPs were then used together with an ethanol suspended lipid solution, comprised of a mixture of 60 mg DSPC:Cholesterol:PE-PEG2000 (molar ratio of 6:4:0.3), for coating with a lipid bilayer by a flow through sonication procedure (FIG. 3, panel B). Following the removal of the non-encapsulated trapping agent, AZD2858, AZD1080, LY2090314, and 1-Azakenpaullone were dissolved in 0.9% saline and incubated with the silicasome carrier to assess the loading capacity in response to different feed weight percentages (FIG. 11).
# Four GSK3 inhibitor-laden silicasome formulations were analyzed to assess encapsulation efficiency and loading capacity. 100 μL of the silicasomes suspension at 10 mg/mL in 0.9% NaCl (1 mg silicasomes) was added to AZD1080, AZD2858, LY2090314, and 1-azakenpaullone solutions, which were prepared by adding 50, 100 or 200 μg of each inhibitor to 900 μL water. These drug mass quantities provided feed weight percentages of 5, 10, and 20%, in comparison to the silicasome mass. Following execution of the remote loading procedure as detailed above, the crude solutions were used to assess absorbance in a glass bottom 96-well plate (Total Drug Absorbance). Silicasomes were centrifuged at 21,000×g for 15 minutes to pellet the particles. After removal of the supernatant, the silicasomes were re-suspended in aa fresh 0.9% NaCl solution. This was repeated three times to remove any unloaded inhibitor. The silicasome solution was then sampled and absorbance was measured to determine Loaded Drug Absorbance. Concentration-matched unloaded ‘blank’ silicasomes also had absorbance measured (Silicasome Blank Absorbance). Encapsulation efficiency was calculated by the following formula: […]
# All measurements were taken using a SpectraMax M5 plate reader (Molecular Devices). All solutions were diluted 1/10 in 0.9% NaCl solution prior to absorbance reads. The absorbances used for each compound were: 418 nm for AZD1080, 383 nm for AZD2858, 213 nm for LY2090314, and 334 nm for 1-azakenpaullone.
# MC38 colon cancer = assay: MC38 syngeneic colon cancer model, subcutaneous tumor growth; type: in vivo, C57BL/6 mice; conditions: MC38; three administrations; n=15 per group
# Protocol: Treatment was repeated every three days for a total of three administrations. Mice were sacrificed four days after the final treatment. The study was executed as two separate experiments, using animal group sizes of n=6 and n=9, respectively. […] The first set of analyses was performed on the tumor volume growth curves (FIG. 5, panel A), impact on final tumor volumes (FIG. 5, panel B) and tumor weight (FIG. 5, panel C) at the time of sacrifice.
# MC38 cells, stably transfected with a luciferase vector, were inoculated into the right flank of C57BL/6 mice, using 0.7×10^6 cells in 40% Matrigel 1×PBS solution. Tumors were allowed to grow to a size of ˜50 mm^3 prior to the initiation of treatment, approximately 14 days after initial inoculation. Mice with outlier tumor sizes (either too small or too large) were excluded from further study. The remaining animals were randomly assigned to the different treatment groups. Mice were treated with three injections, set three days apart, and were sacrificed 4 days after the final treatment administration. […] Two separate experiments were performed, the first with n=6 mice per group and the second with n=9 animals.
# Pdcd1 expression = assay: RT-qPCR of Pdcd1 in anti-CD3 activated primary murine T-cells; type: cell-based, C57BL/6 mouse; conditions: 10 μM, 72 hours, normalized against Gapdh
# Protocol: (§1) This is compatible with the translational expression of T-bet, a transcription factor that interferes in PD-1 expression (FIG. 1, panel B).
# (§2) Wells of a 96-well tissue culture plate were coated with anti-mouse CD3 antibody (Ultra-LEAF, Biolegend). 7.5 μL of 1 mg/mL antibody solution was diluted in 1 mL of 1×PBS, before 50 μL of the dilution was added to each plate well for 2 hours at 37° C. The wells were then thoroughly washed 3× with 1×PBS.
# (§3) T-cells were extracted from C57BL/6 mouse spleens, using a standard procedure with minor modifications (71). Two mouse spleens were mechanically disrupted and the released cells were passed through a 70 μm filter. Red blood cells were lysed using RBC lysis buffer (eBioscience) at 4° C. for 5 minutes. 10 mL of 1×PBS was added to stop the lysis process, following which cells were pelleted at 300×g for 5 minutes. […]
# (§4) Cells were collected and RNA was extracted using Direct-zol RNA MiniPrep Plus kits (Zymo), as per the manufacturer's instructions. Extracted RNA was converted into cDNA using SuperScript III First-Strand Synthesis System kits (Invitrogen). cDNA from treated T-cells was analyzed by RT-PCR using a LightCycler 480 instrument (Roche) and the LightCycler 480 SYBR Green I Master kit (Roche), per manufacturer's instructions. cDNA was analyzed using forward and reverse primers for Pdcd1, Tbx21, and Gapdh as a control, as described previously (10, 14). […]
# Tbx21 expression = assay: RT-qPCR of Tbx21 in anti-CD3 activated primary murine T-cells; type: cell-based, C57BL/6 mouse; conditions: 10 μM, 72 hours, normalized against Gapdh
# Protocol: as §1, §2, §3, §4
# [3] = tested on: CD8+ T-cells in MC38 tumors; assay: Flow cytometry of tumor-infiltrating CD8+ T-cells in MC38 tumors; type: in vivo, C57BL/6 mice
# Description: In order to address the change in the immunological landscape with treatment, we asked whether sAZD1080 could impact the immune parameters that underpin treatment efficacy for immune checkpoint blocking antibodies. These include the CD8^+ cell number, the abundance of PD-1 expression on these cells, perforin release and the generation of cancer cell death, as reflected by activated caspase 3. For the first analysis, tumor cell digests were used to assess the number of CD8^+/CD107a^+/granzyme B^+ lymphocytes by flow cytometry (14, 30). […] In order to assess the status of PD-1 expression on CD8+ cells, flow cytometry was used to assess the % of […] cells in the tumor digests (14, 31).
# Tumors were harvested from MC38 mice after sacrifice. Tumors larger than 100 mm^3 were divided in two, with one half preserved for histology and the other half used to conduct flow cytometry. To prepare samples for flow cytometry, tumor chunks of 2-3 mm^3 were incubated in an enzyme cocktail (1 mg/mL collagenase type IV, 2000 U DNase type IV, 0.1 mg/mL hyaluronidase type V in 1×HBSS) for 1 hour, and the digests passed through a 70 μm nylon filter. Cells were pelleted and washed in HBSS.
# Cells were diluted in cell staining buffer, pelleted by centrifuging at 350×g for 5 minutes, and washed twice. […]
# T-bet = conditions: T-cells; literature (10, 13, 14); cited from earlier work
# [4] = values provided by chemical vendors (Cayman Chemical, Selleck Chemicals)
compound,measurement,setting,value
Nc1cccc(-c2cc3c(Oc4cccc(O)c4)ncnc3[nH]2)c1 [TWS119],pIC50,GSK3; [4],7.40
O=C1NC(=O)C(c2cnc3ccccn23)=C1c1cn2c3c(cc(F)cc13)CN(C(=O)N1CCCCC1)CC2 [LY2090314],pIC50,GSK3; [4],9.05
same,PK and bioavailability in clinical trial,[1],poor PK and drug bioavailability
same,encapsulation efficiency in silicasomes (in words),[2],moderate efficiency
CN1CCN(S(=O)(=O)c2ccc(-c3cnc(N)c(C(=O)Nc4cccnc4)n3)cc2)CC1 [AZD2858],solubility during remote loading (in words),"[2]; dissolved in 0.9% saline, incubated with silicasome carrier, feed weight %",precipitated; also recorded: poor solubility
same,encapsulation efficiency in silicasomes (in words),[2],moderate efficiency
O=C1Cc2c([nH]c3ccc(Br)cc23)-c2ncccc2N1 [1-Azakenpaullone],encapsulation efficiency in silicasomes (in words),[2],comparatively low
Indirubin-3′-monoxime,pIC50,GSK3; [4],7.66
BIO-acetoxime,pIC50,GSK3; [4],8.00
O=C1NC(=O)C(c2ccccc2[N+](=O)[O-])=C1Nc1ccc(O)c(Cl)c1 [SB415286],number of tumor-free animals at time of sacrifice (out of 15),MC38 colon cancer,1/15
same,reduction in Pdcd1 mRNA expression,Pdcd1 expression,~2.2 fold
same,Tbx21 mRNA expression,Tbx21 expression,increased
same,% of CD8/PD-1+ cells in the tumor digests,[3],did not impact
same,expression of T-bet,T-bet,increase
CHIR98014,pIC50,GSK3,9.24
O=c1cc(-c2ccc(O)c(O)c2O)oc2ccccc12 [2-D08],pIC50,GSK3; [4],7.96
Cc1[nH]c2ccccc2c1C1=C(NCCc2ccc(F)cc2)C(=O)N(C)C1=O [IM-12],pIC50,GSK3; [4],7.28
